Reference: patent US8012971B2, “Therapeutic agent for chronic obstructive pulmonary disease” (Dainippon Sumitomo Pharma Co., Ltd., priority 2005, dated 2011)

Assays:
Format in all cases: in vivo
[1] = system: Guinea Pig Chronic Obstructive Pulmonary Disease (COPD) Model; assay: Airway resistance (sRaw) in guinea pig COPD model (cigarette smoke exposure); details: for Specific airway resistance (sRaw) % increase from pre value: 1 week of cigarette smoke exposure, mean ± SEM of 8 animals
Experimental: (§1) An evaluation was carried out as follows according to a report of Kosuke MORIZUMI, Junichi FUCHIGAMI et al., 2002, The 75th Annual Meeting of the Japanese Pharmacological Society (2002) Abstract No. P-259, “Study of a chronic obstructive pulmonary disease-Effects of theophylline on respiratory function and lung function of guinea pigs in an exposure of cigarette smoke.”
(§2) Male Hartley strain guinea pigs (purchased from Japan SLC, Inc.) were taken in a cigarette exposure holder (RMH-TUBES, manufactured by Muenster Ltd.) to secure them to an exposure chamber (Flow-past type nose-only inhalation chamber, manufactured by Muenster Ltd.), and allowed to inhale cigarette smoke (Hi-Lite, manufactured by Japan Tobacco Inc.) for 60 minutes per day for 5 days in a week, totally 4 weeks using a smoking exposure equipment (Hamburg II, manufactured by Borgwaldt Technik), while the exposure was carried out for 4 days in the 4th week. • (2) Drug Administrations
(§3) Each 0.5% MC suspension of a test drug was orally administered daily in 5 ml/weight (kg) once a day for 25 days from the first day of the exposure. To a sham-exposure group and a control group was orally administered a 0.5% MC suspension in a similar manner. Any oral administrations were carried out 0.5 to 1 hours before exposures on a cigarette-smoke-exposure day or after measurements when measuring respiratory functions. A drug was not administered on the day for measurement of respiratory functions after finishing the 4th week of the exposure. • (3) Measurements of Airway Resistance
Specific airway resistances (sRaw) in guinea pigs were measured during awakening by double-flow plethysmography using general respiratory function analysis system (PULMOS-I, manufactured by M•I•P•S Corp.). Measurements were carried out before the exposure and on the day after finishing the 1st, 2nd, 3rd and 4th weeks of the exposure. Each 100 breathings of respiratory functions were individually measured, and the average values were obtained as measured values. A rate of change of airway resistances was calculated by the following equation. Rate of change of each measured week (%)=100×(a measured value on each measured date−a measured value before starting exposures of cigarette smoke)/a measured value before starting exposures of cigarette smoke

[2] = system: Guinea Pig Chronic Obstructive Pulmonary Disease (COPD) Model; assay: Lung functions (FRC, RV) in guinea pig COPD model; details: for Functional residual capacity (FRC) / Residual volume (RV): after 4th week of exposure, mean ± SEM of 8 animals
Experimental: as §1, §2, §3
After measuring airway resistances in the 4th week, animals were cut open their tracheas under urethane-anesthetizing ([…], i.p.), cannulated on the side of lung, fixed by ligation, and measured residual volumes (RV) and functional residual capacities (FRC) by lung functions measuring system (Biosystem for maneuver, manufactured by Buxco Electronics).

[3] = system: Guinea Pig Chronic Obstructive Pulmonary Disease (COPD) Model; assay: Histological investigations of lung in guinea pig COPD model; details: 10 mg/kg/day for 25 days; 8 animals
Experimental: as §1, §2, §3
After collection of BALF, trachea and lung were isolated. The ligation site of the left lung was opened, injected neutral formalin buffer into trachea, bronchi and lung at the pressure of 20 cm H2O via cannula fixed on the side of the lung, and the lung tissue was extended to be fixed. According to a conventional method, tissue section samples were produced using posterior lobe of the left lung and hematoxylin-eosin (HE) stain was carried out. Any other lung tissues were stored in neutral formalin buffers. Drug efficacies of the produced tissue samples were evaluated by scoring tissue changes under the microscope. The criteria of scores were shown as follows: −: none, ±: minimal, +: mild, ++: moderate, +++: severe. Each quantification was calculated as 0, 1, 2, 3, 4.

[4] = groups of 10 mg/kg and 30 mg/kg, result in words

CNC(=O)NCCn1c(-c2ccc(N3CCOCC3)cc2)csc1=Nc1cccc(F)c1 [SMP-028, N-{2-[2-[(3-fluorophenyl)imino]-4-(4-morpholinophenyl)-thiazol-3(2H)-yl]ethyl}-N′-methylurea]
Specific airway resistance (sRaw) % increase from pre value ([1]; 10 mg/kg/day oral): 25.54 ± 10.91% | Specific airway resistance (sRaw) % increase from pre value ([1]; 30 mg/kg/day oral): 15.02 ± 4.07% | increases of airway resistance by cigarette smoking stimulation [1, 4]: tended to be suppressed | Functional residual capacity (FRC) ([2]; 10 mg/kg/day oral): 7.213 ± 0.374 ^NS mL | Residual volume (RV) ([2]; 10 mg/kg/day oral): 3.236 ± 0.537 ^NS mL | Functional residual capacity (FRC) ([2]; 30 mg/kg/day oral): 7.066 ± 0.353 ^NS mL | Residual volume (RV) ([2]; 30 mg/kg/day oral): 2.649 ± 0.649 ^NS mL | increases of functional residual capacity (FRC) and residual volume (RV) [2, 4]: tended to be suppressed | Number of animals with grade + (mild): A. Hyperplasia, epithelial cell, bronchus [3]: 0 | Number of animals with grade + (mild): B. Cellular exudation, neutrophil/eosinophil, lumen, bronchiole [3]: 0 | Number of animals with grade + (mild): C. Thickening, alveolar wall [3]: 2 | Number of animals with grade + (mild): D. Accumulation, foamy/macrophage-like cell, alveolus [3]: 2 | Number of animals with grade + (mild): E. Cellular infiltration, neutrophil, alveolus [3]: 0 | Number of animals with grade ++ (moderate): A. Hyperplasia, epithelial cell, bronchus [3]: 0 | Number of animals with grade ++ (moderate): B. Cellular exudation, neutrophil/eosinophil, lumen, bronchiole [3]: 0 | Number of animals with grade ++ (moderate): C. Thickening, alveolar wall [3]: 0 | Number of animals with grade ++ (moderate): D. Accumulation, foamy/macrophage-like cell, alveolus [3]: 0 | Number of animals with grade ++ (moderate): E. Cellular infiltration, neutrophil, alveolus [3]: 0 | Number of animals with grade +++ (severe): A. Hyperplasia, epithelial cell, bronchus [3]: 0 | Number of animals with grade +++ (severe): B. Cellular exudation, neutrophil/eosinophil, lumen, bronchiole [3]: 0 | Number of animals with grade +++ (severe): C. Thickening, alveolar wall [3]: 0 | Number of animals with grade +++ (severe): D. Accumulation, foamy/macrophage-like cell, alveolus [3]: 0 | Number of animals with grade +++ (severe): E. Cellular infiltration, neutrophil, alveolus [3]: 0 | Number of animals with grade ± (minimal): A. Hyperplasia, epithelial cell, bronchus [3]: 1 | Number of animals with grade ± (minimal): B. Cellular exudation, neutrophil/eosinophil, lumen, bronchiole [3]: 1 | Number of animals with grade ± (minimal): C. Thickening, alveolar wall [3]: 2 | Number of animals with grade ± (minimal): D. Accumulation, foamy/macrophage-like cell, alveolus [3]: 3 | Number of animals with grade ± (minimal): E. Cellular infiltration, neutrophil, alveolus [3]: 0 | Number of animals with grade − (none): A. Hyperplasia, epithelial cell, bronchus [3]: 7 | Number of animals with grade − (none): B. Cellular exudation, neutrophil/eosinophil, lumen, bronchiole [3]: 7 | Number of animals with grade − (none): C. Thickening, alveolar wall [3]: 4 | Number of animals with grade − (none): D. Accumulation, foamy/macrophage-like cell, alveolus [3]: 3 | Number of animals with grade − (none): E. Cellular infiltration, neutrophil, alveolus [3]: 8
